Reference: publication PMC7108782, “Direct interaction of metastasis-inducing S100P protein with tubulin causes enhanced cell migration without changes in cell adhesion” (Biochemical Journal, 2020)
Entries after “also recorded” stand apart in the source; their conditions may differ. No end group written: not given here.

Columns and labels:
COS-7 S10 cells = assay: Boyden chamber cell migration, S100P-inducible COS-7; assay type: cell-based, monkey; settings: for effect on S100P-enhanced migration: COS-7 S10, 20 nM taxol or 5 µM colchicine, 24 h
Text: (§1) Cell migration rate (%) = M/G × 100.

HeLa cells = assay: Boyden chamber cell migration with MT regulators, HeLa; settings: 20 nM taxol, 24 h
Rama 37 cells = assay: Boyden chamber cell migration with MT regulators, Rama 37; settings: 20 nM taxol, 24 h
HeLa-A3 cells = assay: S100P-enhanced cell migration, HeLa-A3; assay type: cell-based, human; settings: HeLa-A3; 20 nM taxol or 5 µM colchicine, 24 h
Text: as §1

Rama 37-T25 cells = assay: S100P-enhanced cell migration, Rama 37-T25; assay type: cell-based, rat; settings: Rama 37-T25; 20 nM taxol or 5 µM colchicine, 24 h
Text: as §1

cell migration = settings: almost all cell types tested, ref [17]; cited from earlier work
Text: It was reported that complete disruption of MTs in CHO and HeLa cells retained normal migration rates, but the resultant movement became more random and reduced overall travel distance.

COS-7 cells = assay: Boyden chamber cell migration, COS-7 parental; assay type: cell-based, monkey
Text: as §1

MCF-7 cells = assay: Boyden chamber cell migration with MT regulators, MCF-7; settings: 20 nM taxol, 24 h, MCF-7
Dicytostelial cells = settings: ref [40]; cited from earlier work
Text: It was reported that complete disruption of MTs in CHO and HeLa cells retained normal migration rates, but the resultant movement became more random and reduced overall travel distance. […] Well-established MTs may increase the rigidity of cells as well as their polarity and play a constraining role to limit a cell's ability of moving and changing direction. […] However, unlike the scratch wound- ...

S100P = biological target: T1, S100P (Homo sapiens, UniProt P25815); assay: Isothermal titration calorimetry (ITC) of tubulin peptides with S100P; assay type: binding; settings: ITC, 25°C, 20 mM MES pH 6.1, 50 mM NaCl, 1.0 mM TCEP, 5 mM CaCl2; single site fit; peptide in cell, S100P titrated
T1 construct: made in house
T1 sequence (P25815 1-95): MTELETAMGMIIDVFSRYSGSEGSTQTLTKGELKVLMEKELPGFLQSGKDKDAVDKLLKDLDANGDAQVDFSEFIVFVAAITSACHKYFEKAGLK
Method: Measurements were conducted using an ITC-200 instrument (Microcal) as previously described. ITC titrations were performed in 20 mM MES pH 6.1, 50 mM NaCl, 1.0 mM TCEP and 5 mM CaCl2 (for Ca^2+-form of S100P) at 25°C. Due to low solubility, peptide solutions at concentrations of 10–400 µM were placed in the cell and titrated with S100P at concentrations of 0.5–3 mM, depending on the peptide concentration. Data were integrated and fitted to a single site binding equation using Origin 7 software which was included with the ITC module (Malvern Microcal, Malvern, U.K.).

[1] = assay type: physicochemical; settings: pH 6.1
Method: ^1H, ^15N HSQC spectra were measured at 40°C in 20 mM 2-morpholinoethanesulfonic acid sodium salt (MES), 50 mM NaCl, 0.5 mM CaCl2, 2 mM Tris-carboxyethyl-phosphine (TCEP), pH 6.1 buffer as described previously. Samples were prepared from 1.6 mM solution of ^15N-labelled S100P and 2–5 mM peptide solutions to obtain a 1 : 1 mixture of 0.1 mM of S100P and 0.1 mM of each peptide. Initially, peptide solutions were prepared by weight to produce 5 mM peptide concentrations. […] In these cases, buffer was added to reduce the peptide concentration to 2 mM. […] These peptides were added to the protein as cloudy suspensions to produce 0.1 mM solutions; some precipitations were still detected. To estimate the peptide concentrations, equivalent peptide solutions without the protein were prepared. All solutions were centrifuged before the NMR measurements. NMR spectra were collected on Bruker Avance III 800 MHz spectrometer equipped with CryoProbe. Data were processed and analysed in TopSpin 3.5 (Bruker, Karlsruhe, Germany).
Measurements were conducted using an ITC-200 instrument (Microcal) as previously described. ITC titrations were performed in 20 mM MES pH 6.1, 50 mM NaCl, 1.0 mM TCEP and 5 mM CaCl2 (for Ca^2+-form of S100P) at 25°C. […]

[2] = biological target: T2, α,β-tubulin immobilised on a chip (human | , UniProt Q71U36 1-451; P07437 1-444); assay: SPR; α,β-tubulin immobilised on CM5 chip; S100P in solution; Kd from the ratio of forward and backward rate constants; settings: both partners purified
T2 sequence (P68363 whole entry, chain 1 of 2): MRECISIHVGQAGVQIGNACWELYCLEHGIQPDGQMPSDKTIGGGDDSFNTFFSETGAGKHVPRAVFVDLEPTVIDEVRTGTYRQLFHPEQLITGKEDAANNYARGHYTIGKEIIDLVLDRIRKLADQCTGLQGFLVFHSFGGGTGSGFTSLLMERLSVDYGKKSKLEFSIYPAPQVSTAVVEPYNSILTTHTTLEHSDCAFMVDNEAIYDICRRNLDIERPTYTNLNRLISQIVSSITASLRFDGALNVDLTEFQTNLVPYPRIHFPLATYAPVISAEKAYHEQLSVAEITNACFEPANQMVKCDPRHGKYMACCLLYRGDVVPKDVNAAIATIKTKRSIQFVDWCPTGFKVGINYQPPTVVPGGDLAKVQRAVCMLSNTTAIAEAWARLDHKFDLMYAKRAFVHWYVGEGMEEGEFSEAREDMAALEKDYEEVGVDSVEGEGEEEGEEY
T2 sequence (P07437 whole entry, chain 2 of 2): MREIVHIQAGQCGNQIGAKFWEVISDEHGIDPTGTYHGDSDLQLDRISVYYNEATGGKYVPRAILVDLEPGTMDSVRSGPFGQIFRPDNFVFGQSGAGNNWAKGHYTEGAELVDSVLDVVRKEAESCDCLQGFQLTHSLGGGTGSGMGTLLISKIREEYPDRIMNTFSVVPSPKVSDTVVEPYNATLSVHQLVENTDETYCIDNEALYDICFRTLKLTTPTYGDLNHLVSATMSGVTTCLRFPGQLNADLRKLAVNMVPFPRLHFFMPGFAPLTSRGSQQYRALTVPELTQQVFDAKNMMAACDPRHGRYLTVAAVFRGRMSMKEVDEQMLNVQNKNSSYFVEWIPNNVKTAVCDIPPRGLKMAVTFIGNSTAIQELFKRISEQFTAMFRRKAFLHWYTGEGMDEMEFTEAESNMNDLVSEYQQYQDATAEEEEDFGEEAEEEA

[3] = biological target: T2, α,β-tubulin immobilised on a chip; assay: SPR; α,β-tubulin immobilised on CM5 chip; S100P in solution; high salt buffer (0.5 M NaCl) with 200 µM CaCl2; multiple cycles; Kd at or near equilibrium; settings: both partners purified
[4] = biological target: T2, α,β-tubulin immobilised on a chip; assay: SPR; α,β-tubulin immobilised on CM5 chip (BS3), Biacore X100; S100P 20-2000 nM in solution; 0.15 M NaCl, 200 µM CaCl2; multiple-cycle; Kd from extent of binding near equilibrium; settings: both partners purified
[5] = biological target: T2, α,β-tubulin immobilised on a chip; assay: cell-based or functional assay
[6] = biological target: VNA peptide from the C terminus of α-tubulin (human); assay: ITC; peptide (10-400 µM) in the cell titrated with S100P (0.5-3 mM); 25°C; 20 mM MES pH 6.1, 50 mM NaCl, 1.0 mM TCEP, 5 mM CaCl2; single site fit
[7] = biological target: DIC peptide, the 26mer starting with DIC from β-tubulin; assay: as above
[8] = biological target: T2, α,β-tubulin immobilised on a chip; assay: SPR; α,β-tubulin immobilised on CM5 chip; S100P in solution; single-cycle analysis; Kd near equilibrium; settings: both partners purified

CC(=O)O[C@H]1C(=O)[C@@]2(C)[C@H]([C@H](OC(=O)c3ccccc3)[C@]3(O)C[C@H](OC(=O)[C@H](O)[C@@H](NC(=O)c4ccccc4)c4ccccc4)C(C)=C1C3(C)C)[C@]1(OC(C)=O)CO[C@@H]1C[C@@H]2O [taxol]
effect on S100P-enhanced migration (COS-7 S10 cells): suppressed
effect on S100P-enhanced migration (COS-7 S10 cells; listed as Taxol): completely prevents the S100P-induced stimulation of migration
effect on S100P's stimulation of migration (COS-7 S10 cells; taxol to stabilise MTs or colchicine to dissociate MTs (abstract)): abolished
reduction of migration by taxol (HeLa cells): 70–75%
reduction of migration by taxol (Rama 37 cells): 70–75%
effect on S100P-enhanced migration (HeLa-A3 cells): suppressed
effect on S100P-enhanced migration (Rama 37-T25 cells): suppressed
effect on cell migration (cell migration): significantly reduced cell migration in almost all cell types tested
reduction of migration by taxol (COS-7 cells; 20 nM taxol, 24 h, COS-7): 70–75%
dose dependence of taxol effect on migration (COS-7 cells; Supplementary Figure S4, COS-7, 24 h): significantly reduced cell migration in a dose-dependent manner
reduction of migration by taxol (MCF-7 cells): 70–75%

COC(=O)Nc1nc2ccc(C(=O)c3cccs3)cc2[nH]1 [nocodazole]
effect on cell migration (Dicytostelial cells): could significantly increase cell migration and shape changes, but reduced chemotaxis; also recorded: dramatically enhance the non-directional (random) movements

DICFRTLKLTTPTYGDLNHLVSATMS [DIC]
Kd (S100P): 9 µM
solubility / aggregation (in words) [1]: sufficiently soluble to measure their binding parameters by ITC

B1: Recombinant S100P (natural protein)
chain: T1 sequence (P25815 1-95)
modifications: 15N-labelled in the NMR experiments
notes: S100P; Used in SPR, gel overlay, NMR and ITC; also called 15N-labelled S100P; source: recombinant, produced as described previously [10]
Kd [2]: 0.1 to 0.2 µM
Kd [3]: 6.1 µM
Kd [4]: 0.31 µM
S100P-induced fold increase in migration of COS-7 S10 cells (3.4 or 3.5 fold with DMSO or Tag), with 20 µM T-DIC [5]: 1.4 fold
S100P-induced fold increase in migration of COS-7 S10 cells (3.4 or 3.5 fold with DMSO or Tag), with 20 µM T-DLV [5]: 1.5 fold
Kd [6]: 62 µM
stoichiometry N (peptide:protein) [6]: 2
Kd [7]: 9 µM
Kd [8]: 0.22 µM
